{"source": "patent US6699719B2", "about": "“Biosensor arrays and methods” (Proteomic Systems, Inc., priority 1996, dated 2004)", "key": {"[1]": {"target": "CXCR4 (CXC chemokine Receptor 4) (Homo sapiens, UniProt P61073)", "sequence (P61073 whole entry, species assumed)": "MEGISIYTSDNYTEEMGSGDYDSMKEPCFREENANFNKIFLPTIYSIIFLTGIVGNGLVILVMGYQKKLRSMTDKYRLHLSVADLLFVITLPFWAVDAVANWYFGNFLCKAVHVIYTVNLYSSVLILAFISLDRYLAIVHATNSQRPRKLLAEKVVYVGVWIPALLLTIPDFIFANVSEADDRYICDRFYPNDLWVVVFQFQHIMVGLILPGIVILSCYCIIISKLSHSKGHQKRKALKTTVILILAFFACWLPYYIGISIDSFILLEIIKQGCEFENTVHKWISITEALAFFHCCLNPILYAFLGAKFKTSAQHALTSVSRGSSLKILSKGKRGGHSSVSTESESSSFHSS", "assay": "MembraneChip specificity of fluorescent ligand binding against another GPCR", "conditions": "CXCR4 chip probed with 15 μM BODIPY 558/568 Pirenzepine"}, "[2]": {"assay": "MembraneChip lipid only control corral probed with fluorescent ligand", "format": "binding", "conditions": "for difference in BODIPY TMR CGP12177 fluorescence when competitor added: lipid only (negative) corral, 5 mM propranolol or 15 mM scopolamine"}, "[3]": {"target": "T1, CXCR1 (Homo sapiens, UniProt P25024)", "T1 construct": "purchased Stratagene (La Jolla, Calif.)", "T1 sequence (P25024 1-350)": "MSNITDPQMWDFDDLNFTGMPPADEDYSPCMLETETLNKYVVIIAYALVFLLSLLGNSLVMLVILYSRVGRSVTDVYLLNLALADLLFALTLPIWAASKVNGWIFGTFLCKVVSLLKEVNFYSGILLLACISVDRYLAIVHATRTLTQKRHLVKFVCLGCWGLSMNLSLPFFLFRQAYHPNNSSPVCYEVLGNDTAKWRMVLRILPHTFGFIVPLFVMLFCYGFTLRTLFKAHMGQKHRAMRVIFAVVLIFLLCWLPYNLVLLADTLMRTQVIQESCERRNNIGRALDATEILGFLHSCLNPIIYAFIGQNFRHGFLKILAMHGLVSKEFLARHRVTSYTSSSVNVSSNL", "assay": "Multiplexed MembraneChip GPCR assay", "format": "binding", "conditions": "CXCR1 corral; 5 mM propranolol or 15 mM scopolamine"}, "[4]": {"target": "T2, CXCR3 (Homo sapiens, UniProt P49682)", "T2 construct": "purchased Stratagene (La Jolla, Calif.)", "T2 sequence (P49682 1-368)": "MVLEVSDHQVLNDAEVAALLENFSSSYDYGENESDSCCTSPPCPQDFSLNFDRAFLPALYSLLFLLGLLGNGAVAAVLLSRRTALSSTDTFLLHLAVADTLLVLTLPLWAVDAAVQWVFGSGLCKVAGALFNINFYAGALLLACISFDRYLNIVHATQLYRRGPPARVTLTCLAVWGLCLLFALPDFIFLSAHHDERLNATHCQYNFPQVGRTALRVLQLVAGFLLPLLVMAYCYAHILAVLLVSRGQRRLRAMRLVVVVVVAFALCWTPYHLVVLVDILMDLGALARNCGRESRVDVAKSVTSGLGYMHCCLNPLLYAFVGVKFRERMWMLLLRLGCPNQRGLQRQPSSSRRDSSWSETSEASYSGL", "assay": "Multiplexed MembraneChip GPCR assay", "format": "binding", "conditions": "CXCR3 corral; 5 mM propranolol or 15 mM scopolamine"}, "[5]": {"target": "T3, AR-β1 (Homo sapiens, UniProt P08588)", "T3 construct": "purchased Packard BioScience (Meriden, CT) 6110106", "T3 sequence (P08588 whole entry)": "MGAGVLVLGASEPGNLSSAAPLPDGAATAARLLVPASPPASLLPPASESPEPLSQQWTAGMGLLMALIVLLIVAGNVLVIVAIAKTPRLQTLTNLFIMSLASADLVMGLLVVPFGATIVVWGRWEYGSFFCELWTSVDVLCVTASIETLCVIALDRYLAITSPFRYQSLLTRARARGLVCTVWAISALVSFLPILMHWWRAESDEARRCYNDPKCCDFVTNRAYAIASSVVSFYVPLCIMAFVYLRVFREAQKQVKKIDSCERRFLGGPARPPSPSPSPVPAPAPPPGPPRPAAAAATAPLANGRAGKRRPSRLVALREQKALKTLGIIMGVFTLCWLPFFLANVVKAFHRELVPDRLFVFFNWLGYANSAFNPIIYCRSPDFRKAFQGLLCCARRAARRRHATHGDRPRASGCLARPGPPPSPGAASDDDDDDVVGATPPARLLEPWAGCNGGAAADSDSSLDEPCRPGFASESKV", "assay": "Multiplexed MembraneChip GPCR assay", "format": "binding", "conditions": "15 mM scopolamine"}, "[6]": {"target": "CXCR4 (Homo sapiens, UniProt P61073)", "sequence (P61073 whole entry, species assumed)": "as the sequence (P61073 whole entry, species assumed) above", "assay": "Multiplexed MembraneChip GPCR assay", "format": "binding", "conditions": "CXCR4 corral; 5 mM propranolol or 15 mM scopolamine"}}, "data": [{"smiles": "O=C(CCc1ccc(/C=C2\\C=CC(c3cccs3)=N2)n1B(F)F)NCCCCCCN1CCN(CC(=O)N2c3ccccc3C(=O)Nc3cccnc32)CC1", "note": "[BODIPY 558/568 Pirenzepine]", "values": [{"measurement": "Relative Fluorescence Units (RFU) ± standard deviation, CXCR4", "setting": "[1]", "result": "8,788 ± 3,137 RFU"}, {"measurement": "Relative Fluorescence Units (RFU) ± standard deviation, Negative", "setting": "[2]; lipid only corral probed with 15 μM BODIPY 558/568 Pirenzepine", "result": "2,637 ± 1,846 RFU"}]}, {"smiles": "CC(C)NCC(O)COc1cccc2ccccc12", "note": "(stereo not shown) [propranolol]", "values": [{"measurement": "difference in BODIPY TMR CGP12177 fluorescence when competitor added", "setting": "[2]", "result": "only negligible differences"}, {"measurement": "difference in BODIPY TMR CGP12177 fluorescence when competitor added", "setting": "[3]", "result": "only negligible differences"}, {"measurement": "difference in BODIPY TMR CGP12177 fluorescence when competitor added", "setting": "[4]", "result": "only negligible differences"}]}, {"smiles": "CN1[C@@H]2C[C@@H](OC(=O)[C@H](CO)c3ccccc3)C[C@H]1[C@@H]1O[C@@H]12", "note": "[scopolamine]", "values": [{"measurement": "difference in BODIPY TMR CGP12177 fluorescence when competitor added", "setting": "[2]", "result": "only negligible differences"}, {"measurement": "change in fluorescence of BODIPY TMR CGP12177 at AR-β1", "setting": "[5]", "result": "Little decrease in fluorescence"}, {"measurement": "difference in BODIPY TMR CGP12177 fluorescence when competitor added", "setting": "[3]", "result": "only negligible differences"}, {"measurement": "difference in BODIPY TMR CGP12177 fluorescence when competitor added", "setting": "[4]", "result": "only negligible differences"}, {"measurement": "difference in BODIPY TMR CGP12177 fluorescence when competitor added", "setting": "[6]", "result": "only negligible differences"}]}]}
